For test [1], the system named is Puccinia recondita f. Sp. Tritici. Put plainly: Fungicidal activity, wheat leaf disc preventative (brown rust). The class given is in vivo. The settings on record: foliar, 200 ppm in the applied formulation, wheat leaf segments cv. Kanzler, compared to untreated control, 7 to 9 days after application, read-out: disease control. As for the experimental part: (§1) Leaf disks or leaf segments of various plant species are cut from plants grown in a greenhouse. The cut leaf disks or segments are placed in multiwell plates (24-well format) onto water agar. The leaf disks are sprayed with a test solution before (preventative) or after (curative) inoculation. Compounds to be tested are prepared as DMSO solutions (max. 10 mg/ml) which are diluted to the appropriate concentration with 0.025% Tween20 just before spraying. The inoculated leaf disks or segments are incubated under defined conditions (temperature, relative humidity, light, etc.) according to the respective test system. A single evaluation of disease level is carried out 3 to 14 days after inoculation, depending on the pathosystem. Percent disease control relative to the untreated check leaf disks or segments is then calculated.
Wheat leaf segments cv. Kanzler were placed on agar in multiwell plates (24-well format) and sprayed with the formulated test compound diluted in water. The leaf disks were inoculated with a spore suspension of the fungus 1 day after application. The inoculated leaf segments were incubated at 19° C. and 75% relative humidity (rh) under a light regime of 12 hours light/12 hours darkness in a climate cabinet and the activity of a compound was assessed as percent disease control compared to untreated when an appropriate level of disease damage appears in untreated check leaf segments (7 to 9 days after application).
(§2) The following compounds at 200 ppm in the applied formulation give at least 80% disease control in this test when compared to untreated control leaf disks under the same conditions, which show extensive disease development.

Test [2] concerns Glomerella lacenarium (Colletotrichum lacenarium). Put plainly: Fungicidal activity, liquid culture, cucumber preventative (anthracnose). The class given is cell-based. To be noted: 20 ppm in the applied formulation, liquid culture in PDB, inhibition of growth measured photometrically 3 to 4 days after application, compared to untreated control, read-out: disease control. The method, then:
Mycelia fragments or conidia suspensions of a fungus prepared either freshly from liquid cultures of the fungus or from cryogenic storage, are directly mixed into nutrient broth. DMSO solutions of the test compound (max. 10 mg/ml) are diluted with 0.025% Tween20 by a factor of 50 and 10 μl of this solution is pipetted into a microtiter plate (96-well format). The nutrient broth containing the fungal spores/mycelia fragments is then added to give an end concentration of the tested compound. The test plates are incubated in the dark at 24° C. and 96% relative humidity. The inhibition of fungal growth is determined photometrically after 2 to 7 days, depending on the pathosystem, and percent antifungal activity relative to the untreated check is calculated.
Conidia of the fungus from cryogenic storage are directly mixed into nutrient broth (PDB—potato dextrose broth). After placing a (DMSO) solution of test compound into a microtiter plate (96-well format), the nutrient broth containing the fungal spores is added. The test plates are incubated at 24° C. and the inhibition of growth is measured photometrically 3 to 4 days after application.
The following compounds at 20 ppm in the applied formulation give at least 80% disease control in this test when compared to untreated control under the same conditions, which show extensive disease development.

In test [3] the test system is Puccinia recondita f. Sp. Tritici. Put plainly: Fungicidal activity, wheat leaf disc curative (brown rust). The test is classed as in vivo. To be noted: foliar, 200 ppm in the applied formulation, wheat leaf segments cv. Kanzler, curative (applied 1 day after inoculation), compared to untreated control, 6 to 8 days after application, read-out: disease control. As for the experimental part:
as §1
Wheat leaf segments cv. Kanzler are placed on agar in multiwell plates (24-well format). The leaf segments are then inoculated with a spore suspension of the fungus. Plates were stored in darkness at 19° C. and 75% relative humidity. The formulated test compound diluted in water was applied 1 day after inoculation. The leaf segments were incubated at 19° C. and 75% relative humidity under a light regime of 12 hours light/12 hours darkness in a climate cabinet and the activity of a compound was assessed as percent disease control compared to untreated when an appropriate level of disease damage appears in untreated check leaf segments (6 to 8 days after application).
as §2

As for `CCS(=O)(=O)N(C)Cc1ccc(-c2noc(C(F)(F)F)n2)s1` [Compound 6.25, N-methyl-N-[[5-[5-(trifluoromethyl)-1,2,4-oxadiazol-3-yl]-2-thienyl]methyl]ethanesulfonamide], in test [1], the pest or weed control at 200 ppm was at least 80%. For the same compound, in test [2], the inhibition of growth at 20 ppm is at least 80%.
Turning to `Cc1ccc(S(=O)(=O)N(C)Cc2ccc(-c3noc(C(F)(F)F)n3)s2)cc1` [Compound 6.28, N,4-dimethyl-N-[[5-[5-(trifluoromethyl)-1,2,4-oxadiazol-3-yl]-2-thienyl]methyl]benzenesulfonamide], the pest or weed control at 200 ppm in test [3] is at least 80%.
Regarding `CN(C)S(=O)(=O)N(C)Cc1ccc(-c2noc(C(F)(F)F)n2)s1` [Compound 6.29, N-(dimethylsulfamoyl)-N-methyl-1-[5-[5-(trifluoromethyl)-1,2,4-oxadiazol-3-yl]-2-thienyl]methanamine], in test [1], the pest or weed control at 200 ppm is at least 80%. For the same compound, the inhibition of growth at 20 ppm in test [2] is at least 80%.
For the compound `CN(Cc1ccc(-c2noc(C(F)(F)F)n2)s1)S(=O)(=O)C1CC1` [Compound 6.30, N-methyl-N-[[5-[5-(trifluoromethyl)-1,2,4-oxadiazol-3-yl]-2-thienyl]methyl]cyclopropanesulfonamide], the pest or weed control at 200 ppm in test [1] was at least 80%. Further, the inhibition of growth at 20 ppm in test [2] is at least 80%.
As for `CCCS(=O)(=O)N(C)Cc1ccc(-c2noc(C(F)(F)F)n2)s1` [Compound 6.31, N-methyl-N-[[5-[5-(trifluoromethyl)-1,2,4-oxadiazol-3-yl]-2-thienyl]methyl]propane-1-sulfonamide], in test [1], the pest or weed control at 200 ppm is at least 80%. For the same compound, the inhibition of growth at 20 ppm in test [2] was at least 80%.
In the case of `COCCS(=O)(=O)N(Cc1ccc(-c2noc(C(F)(F)F)n2)s1)C1CC1` [Compound 6.32, N-cyclopropyl-2-methoxy-N-[[5-[5-(trifluoromethyl)-1,2,4-oxadiazol-3-yl]-2-thienyl]methyl]ethanesulfonamide], the pest or weed control at 200 ppm in test [1] is at least 80%. Besides, in test [2], the inhibition of growth at 20 ppm was at least 80%.
As for `O=S(=O)(Cc1ccccc1)N(Cc1ccc(-c2noc(C(F)(F)F)n2)s1)C1CC1` [Compound 6.33, N-cyclopropyl-1-phenyl-N-[[5-[5-(trifluoromethyl)-1,2,4-oxadiazol-3-yl]-2-thienyl]methyl]methanesulfonamide], the pest or weed control at 200 ppm in test [1] was at least 80%. In addition, the inhibition of growth at 20 ppm in test [2] was at least 80%.
As for `CCS(=O)(=O)N(Cc1ccc(-c2noc(C(F)(F)F)n2)s1)C1CC1` [Compound 6.35, N-cyclopropyl-N-[[5-[5-(trifluoromethyl)-1,2,4-oxadiazol-3-yl]-2-thienyl]methyl]ethanesulfonamide], the pest or weed control at 200 ppm in test [1] was at least 80%. Besides, the inhibition of growth at 20 ppm in test [2] was at least 80%.
Consider `O=S(=O)(C1CC1)N(Cc1ccc(-c2noc(C(F)(F)F)n2)s1)C1CC1` [Compound 6.38, N-cyclopropyl-N-[[5-[5-(trifluoromethyl)-1,2,4-oxadiazol-3-yl]-2-thienyl]methyl]cyclopropanesulfonamide], for which the pest or weed control at 200 ppm in test [1] was at least 80%. Moreover, in test [2], the inhibition of growth at 20 ppm is at least 80%.
On to `CCCS(=O)(=O)N(Cc1ccc(-c2noc(C(F)(F)F)n2)s1)C1CC1` [Compound 6.39, N-cyclopropyl-N-[[5-[5-(trifluoromethyl)-1,2,4-oxadiazol-3-yl]-2-thienyl]methyl]propane-1-sulfonamide], for which, in test [1], the pest or weed control at 200 ppm was at least 80%. Also, in test [2], the inhibition of growth at 20 ppm was at least 80%.
Consider `CCN(Cc1ccc(-c2noc(C(F)(F)F)n2)s1)C(=O)C(=O)CC(C)C` [Compound 6.44, N-ethyl-4-methyl-2-oxo-N-[[5-[5-(trifluoromethyl)-1,2,4-oxadiazol-3-yl]-2-thienyl]methyl]pentanamide], for which the pest or weed control at 200 ppm in test [1] is at least 80%. Moreover, the inhibition of growth at 20 ppm in test [2] is at least 80%.
Consider `CCN(Cc1ccc(-c2noc(C(F)(F)F)n2)s1)C(=O)C(=O)c1cccs1` [Compound 6.45, N-ethyl-2-oxo-2-(2-thienyl)-N-[[5-[5-(trifluoromethyl)-1,2,4-oxadiazol-3-yl]-2-thienyl]methyl]acetamide], for which the pest or weed control at 200 ppm in test [1] is at least 80%. In addition, the inhibition of growth at 20 ppm in test [2] is at least 80%.
Consider `CN(Cc1ccc(-c2noc(C(F)(F)F)n2)s1)C(=O)C(=O)Cc1ccccc1` [Compound 6.50, N-methyl-2-oxo-3-phenyl-N-[[5-[5-(trifluoromethyl)-1,2,4-oxadiazol-3-yl]-2-thienyl]methyl]propanamide], for which the pest or weed control at 200 ppm in test [1] was at least 80%. In addition, the inhibition of growth at 20 ppm in test [2] is at least 80%.
For `O=C(C(=O)N(Cc1ccc(-c2noc(C(F)(F)F)n2)s1)C1CC1)c1ccccc1` [Compound 6.54, N-cyclopropyl-2-oxo-2-phenyl-N-[[5-[5-(trifluoromethyl)-1,2,4-oxadiazol-3-yl]-2-thienyl]methyl]acetamide], the pest or weed control at 200 ppm in test [1] is at least 80%. The inhibition of growth at 20 ppm in test [2] is at least 80%.
In the case of `CC(C)(C)C(=O)C(=O)N(Cc1ccc(-c2noc(C(F)(F)F)n2)s1)C1CC1` [Compound 6.55, N-cyclopropyl-3,3-dimethyl-2-oxo-N-[[5-[5-(trifluoromethyl)-1,2,4-oxadiazol-3-yl]-2-thienyl]methyl]butanamide], the pest or weed control at 200 ppm in test [1] was at least 80%. Moreover, the inhibition of growth at 20 ppm in test [2] is at least 80%.
Consider `CC(C)CC(=O)C(=O)N(Cc1ccc(-c2noc(C(F)(F)F)n2)s1)C1CC1` [Compound 6.58, N-cyclopropyl-4-methyl-2-oxo-N-[[5-[5-(trifluoromethyl)-1,2,4-oxadiazol-3-yl]-2-thienyl]methyl]pentanamide], for which, in test [1], the pest or weed control at 200 ppm is at least 80%. Further, the inhibition of growth at 20 ppm in test [2] is at least 80%.
As to `O=C(C(=O)N(Cc1ccc(-c2noc(C(F)(F)F)n2)s1)C1CC1)c1cccs1` [Compound 6.59, N-cyclopropyl-2-oxo-2-(2-thienyl)-N-[[5-[5-(trifluoromethyl)-1,2,4-oxadiazol-3-yl]-2-thienyl]methyl]acetamide], the pest or weed control at 200 ppm in test [1] is at least 80%. The inhibition of growth at 20 ppm in test [2] is at least 80%.
On to `O=C(C(=O)N(Cc1ccc(-c2noc(C(F)(F)F)n2)s1)C1CC1)c1ccco1` [Compound 6.60, N-cyclopropyl-2-(2-furyl)-2-oxo-N-[[5-[5-(trifluoromethyl)-1,2,4-oxadiazol-3-yl]-2-thienyl]methyl]acetamide], for which the pest or weed control at 200 ppm in test [1] was at least 80%. In addition, in test [2], the inhibition of growth at 20 ppm is at least 80%.
On to `O=C(C(=O)N(Cc1ccc(-c2noc(C(F)(F)F)n2)s1)OCC(F)F)c1ccccc1` [Compound 6.61, N-(2,2-difluoroethoxy)-2-oxo-2-phenyl-N-[[5-[5-(trifluoromethyl)-1,2,4-oxadiazol-3-yl]-2-thienyl]methyl]acetamide], for which, in test [1], the pest or weed control at 200 ppm is at least 80%. Also, the inhibition of growth at 20 ppm in test [2] is at least 80%.
Consider `O=C(C(=O)N(Cc1ccc(-c2noc(C(F)(F)F)n2)s1)OCC(F)F)c1cccs1` [Compound 6.63, N-(2,2-difluoroethoxy)-2-oxo-2-(2-thienyl)-N-[[5-[5-(trifluoromethyl)-1,2,4-oxadiazol-3-yl]-2-thienyl]methyl]acetamide], for which the pest or weed control at 200 ppm in test [1] is at least 80%. Moreover, the inhibition of growth at 20 ppm in test [2] is at least 80%.
`O=C(C(=O)N(Cc1ccc(-c2noc(C(F)(F)F)n2)s1)OCC(F)F)c1ccco1` [Compound 6.64, N-(2,2-difluoroethoxy)-2-(2-furyl)-2-oxo-N-[[5-[5-(trifluoromethyl)-1,2,4-oxadiazol-3-yl]-2-thienyl]methyl]acetamide]: in test [1], the pest or weed control at 200 ppm is at least 80%. Also, the inhibition of growth at 20 ppm in test [2] was at least 80%.

The values above are taken from patent US20200187502A1, “MICROBIOCIDAL OXADIAZOLE DERIVATIVES” (SYNGENTA PARTICIPATIONS AG, priority 2017, published 2020).
